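A five-concentration, 48-hour dose response in 96-well plates underlies each endpoint, interpolated linearly between surrounding concentrations. GI50 marks 50% less growth.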 Active and inactive are the calls of the source. Rule as the data show it: active = GI50 up to about 1.1 µM and inactive = higher.
Assays:
Test in all cases: growth of human tumour cells (NCI), 48 h
[1] = system: CCRF-CEM
[2] = system: COLO 205
[3] = system: EKVX
[4] = system: HL-60
[5] = system: HOP-62
[6] = system: HT-29
[7] = system: IGROV-1
[8] = system: LOX IMVI
[9] = system: MOLT-4
[10] = system: Malme-3M
[11] = system: OVCAR-3
[12] = system: OVCAR-5
[13] = system: RPMI-8226
[14] = system: SF-295
[15] = system: UACC-62
[16] = system: NCI-H23
[17] = system: NCI/ADR-RES
[18] = system: SK-MEL-28
[19] = system: SK-MEL-5
[20] = system: U-251

Measured: GI50

CC(C)N/C(N)=N/C#N
inactive: [1] > 100 µM | [2] > 100 µM | [3] > 100 µM | [4] > 100 µM | [5] > 100 µM | [6] > 100 µM | [7] > 100 µM | [8] > 100 µM | [9] > 100 µM | [10] > 100 µM | [11] > 100 µM | [12] > 100 µM | [13] > 100 µM | [14] > 100 µM | [15] > 100 µM

COC(=O)N1CC2C3C4CC(C(c5ccccc5)=C4c4ccccc4)C3C21 (stereo not drawn)
inactive: [1] 14.9 µM | [2] 23.1 µM | [3] 13.2 µM | [5] 19.3 µM | [6] 17.1 µM | [7] 17.5 µM | [8] 12.2 µM | [9] 12.5 µM | [16] 20.9 µM | [17] 16.8 µM | [11] 15.5 µM | [12] 27.7 µM | [13] 8.59 µM | [14] 13.4 µM | [18] 19.9 µM | [19] 11.5 µM | [20] 13.2 µM | [15] 13.2 µM

Cc1ccc(C(=O)N/N=C(\N=N\c2ccc([N+](=O)[O-])cc2)c2ccc(N(CCC#N)CCC#N)cc2C)cc1
inactive: [1] 39.8 µM | [2] 50 µM | [3] > 100 µM | [4] 30.2 µM | [5] 71.4 µM | [6] 34.3 µM | [7] 66.8 µM | [8] 60.8 µM | [9] 57.3 µM | [10] > 100 µM | [16] > 100 µM | [17] > 100 µM | [11] 39.6 µM | [12] > 100 µM | [13] > 100 µM | [14] 57.9 µM | [18] 97.1 µM | [19] 75.3 µM | [20] > 100 µM

Cc1ccccc1NC(=O)C(=O)C(C1OC(=O)c2ccccc21)[N+](=O)[O-] (stereo not drawn)
inactive: [1] 68.7 µM | [2] > 100 µM | [3] > 100 µM | [4] > 100 µM | [5] > 100 µM | [6] > 100 µM | [7] > 100 µM | [8] > 100 µM | [9] > 100 µM | [16] > 100 µM | [12] > 100 µM | [13] > 100 µM | [14] > 100 µM | [18] > 100 µM | [19] > 100 µM | [20] > 100 µM | [15] > 100 µM

O=C1OCc2cccc3c2-c2c1cccc2C(=O)OC3
inactive: [2] > 100 µM | [3] > 100 µM | [4] > 100 µM | [5] > 100 µM | [6] > 100 µM | [7] > 100 µM | [9] > 100 µM | [10] > 100 µM | [16] > 100 µM | [11] > 100 µM | [13] > 100 µM | [14] > 100 µM | [18] > 100 µM | [19] > 100 µM | [20] > 100 µM | [15] > 100 µM

BrC1=CN2C[n+]3cc(Br)c4ccccc4c3N=C2c2ccccc21
inactive: [1] 10.7 µM | [2] 10.3 µM | [4] 22.5 µM | [5] 1.4 µM | [6] 11.8 µM | [7] 7.05 µM | [8] 12.4 µM | [9] 11 µM | [10] 2.75 µM | [16] 21.1 µM | [17] > 100 µM | [11] 2.88 µM | [12] 17.9 µM | [13] 10.8 µM | [14] 8.59 µM | [18] 2.26 µM | [19] 3.34 µM | [20] 4.54 µM | [15] 5.58 µM

CO/N=C(\C)c1ccc(Nc2nc3ccccc3c3occc23)cc1
inactive: [1] 16 µM | [2] 14.5 µM | [3] 14 µM | [4] 26.5 µM | [5] 16 µM | [6] 3.03 µM | [7] 16.1 µM | [8] 15.3 µM | [9] 17.1 µM | [10] 14.6 µM | [16] 14.7 µM | [17] 15.6 µM | [11] 30.2 µM | [12] 16.3 µM | [13] 16.9 µM | [14] 16.7 µM | [19] 15.8 µM | [20] 16.9 µM | [15] 12.1 µM

COc1ccccc1-c1cc(O)c2c(C)ccnc2n1
inactive: [1] 35.6 µM | [2] 19.5 µM | [3] 37 µM | [5] 30.1 µM | [6] 33.1 µM | [7] > 100 µM | [8] 37.9 µM | [9] 31.7 µM | [10] 39 µM | [16] 29.9 µM | [17] 19.3 µM | [12] 52.4 µM | [13] 59.8 µM | [18] 84.3 µM | [15] 42.9 µM
